Data reported in ChEMBL document CHEMBL1133056, “Structure-activity relationships of halichondrin B analogues: modifications at C.30-C.38” (Bioorg Med Chem Lett, 2000).
pIC50: −log10 of the molar value.

What was measured:
DLD-1 = test: The compound was tested for cell growth inhibition against DLD-1 human colon cancer cells under continuous exposure conditions for 3-4 days; format: functional, cell-based
P388 [1] = test: Fold resistance was calculated as IC50 ratio between retrovirally transformed P388/VMDRC.04 and parental P388/S cells; format: functional, Mus musculus
P388 [2] = test: The compound was tested for susceptibility to […] murine P388/S leukemia cells under continuous exposure conditions for 3-4 days; format: functional, cell-based; conditions: Mus musculus
[3] = The compound was tested for its ability to maintain a irreversible mitotic block 10 hr after drug washout using flow cytometric analysis of U937 human histiocytic lymphoma cells; format: functional; conditions: U-937, 10 h
P388 [4] = test: The compound was tested for susceptibility to P-glycoprotein (PgP) mediated drug efflux using murine P388/VMDRC.04 cells under continuous exposure conditions for 3-4 days; format: functional, cell-based; conditions: Mus musculus

Structure (SMILES)	pIC50 (DLD-1)	FR (P388 [1])	pIC50 (P388 [2])	IC99 [3] [µM]	pIC50 (P388 [4])
C=C1C[C@@H]2CC[C@@]34C[C@@H]5O[C@@H]6[C@@H](O[C@H]7CC[C@H](CC(=O)O[C@@H]8C[C@@H]9O[C@H](CO)[C@@H](O)C[C@@H]9O[C@H]8C[C@H]8O[C@@H](CC[C@@H]1O2)C[C@@H](C)C8=C)O[C@@H]7[C@@H]6O3)[C@H]5O4	6.21	–	–	–	–
C=C1C[C@@H]2CC[C@@]34C[C@@H]5O[C@@H]6[C@@H](O[C@H]7CC[C@H](CC(=O)O[C@@H]8[C@@H](CC)[C@@H]9O[C@H](CO)[C@@H](O)C[C@@H]9O[C@H]8C[C@H]8O[C@@H](CC[C@@H]1O2)C[C@@H](C)C8=C)O[C@@H]7[C@@H]6O3)[C@H]5O4	8.22	10	8.80	1	7.80
C=C1C[C@@H]2CC[C@@]34C[C@@H]5O[C@@H]6[C@@H](O[C@H]7CC[C@H](CC(=O)O[C@@H]8[C@@H](C)[C@@H]9O[C@H](CCO)[C@@H](O)C[C@@H]9O[C@H]8C[C@H]8O[C@@H](CC[C@@H]1O2)C[C@@H](C)C8=C)O[C@@H]7[C@@H]6O3)[C@H]5O4	8.44	9.4	8.77	> 1	8.80
C=C1C[C@@H]2CC[C@@]34C[C@@H]5O[C@@H]6[C@@H](O[C@H]7CC[C@H](CC(=O)O[C@@H]8[C@@H](C)[C@@H]9O[C@H](CO)[C@H](O)C[C@@H]9O[C@H]8C[C@H]8O[C@@H](CC[C@@H]1O2)C[C@@H](C)C8=C)O[C@@H]7[C@@H]6O3)[C@H]5O4	8.47	12	9.15	0.22	8.09
C=C1C[C@@H]2CC[C@@]34C[C@@H]5O[C@@H]6[C@@H](O[C@H]7CC[C@H](CC(=O)O[C@H]8C[C@@H]9O[C@H](CO)[C@@H](O)C[C@@H]9O[C@H]8C[C@H]8O[C@@H](CC[C@@H]1O2)C[C@@H](C)C8=C)O[C@@H]7[C@@H]6O3)[C@H]5O4	6.64	–	–	–	–
C=C1C[C@@H]2CC[C@@]34C[C@@H]5O[C@@H]6[C@@H](O[C@H]7CC[C@H](CC(=O)O[C@@H]8[C@@H](C)[C@@H]9O[C@@H]%10CCO[C@@H]%10C[C@@H]9O[C@H]8C[C@H]8O[C@@H](CC[C@@H]1O2)C[C@@H](C)C8=C)O[C@@H]7[C@@H]6O3)[C@H]5O4	8.59	2.1	8.89	> 1	8.57
C=C1C[C@@H]2CC[C@@]34C[C@@H]5O[C@@H]6[C@@H](O[C@H]7CC[C@H](CC(=O)O[C@@H]8[C@@H](C)[C@@H]9O[C@@H]%10CCOC%10(O)C[C@@H]9O[C@H]8C[C@H]8O[C@@H](CC[C@@H]1O2)C[C@@H](C)C8=C)O[C@@H]7[C@@H]6O3)[C@H]5O4 (some centres not stated)	8.28	2	8.51	1	8.20
C=C1C[C@@H]2CC[C@@]34C[C@@H]5O[C@@H]6[C@@H](O[C@H]7CC[C@H](CC(=O)O[C@@H]8[C@@H](C)[C@@H]9O[C@H](CCOC)[C@H](O)C[C@@H]9O[C@H]8C[C@H]8O[C@@H](CC[C@@H]1O2)C[C@@H](C)C8=C)O[C@@H]7[C@@H]6O3)[C@H]5O4	8.92	2.7	9.26	> 0.65	8.82
C=C1C[C@@H]2CC[C@@]34C[C@@H]5O[C@@H]6[C@@H](O[C@H]7CC[C@H](CC(=O)O[C@@H]8[C@@H](C)[C@@H]9O[C@@H]%10CC(O)O[C@@H]%10C[C@@H]9O[C@H]8C[C@H]8O[C@@H](CC[C@@H]1O2)C[C@@H](C)C8=C)O[C@@H]7[C@@H]6O3)[C@H]5O4 (some centres not stated)	8.68	2.5	8.82	> 1	8.42
C=C1C[C@@H]2CC[C@@]34C[C@@H]5O[C@@H]6[C@@H](O[C@H]7CC[C@H](CC(=O)O[C@@H]8[C@@H](C)[C@@H]9O[C@H](CCO)[C@H](O)C[C@@H]9O[C@H]8C[C@H]8O[C@@H](CC[C@@H]1O2)C[C@@H](C)C8=C)O[C@@H]7[C@@H]6O3)[C@H]5O4	8.34	4	8.66	> 0.88	8.06
C=C1C[C@@H]2CCC34C[C@@H]5O[C@@H]6[C@@H](O[C@H]7CC[C@H](CC(=O)O[C@@H]8[C@@H](C)[C@@H]9O[C@@H]%10C[C@]%11(C[C@@H]%12O[C@]%13(C[C@H](C)[C@@H]%14O[C@H]([C@@H](O)C[C@@H](O)CO)C[C@@H]%14O%13)C[C@H](C)[C@@H]%12O%11)O[C@@H]%10C[C@@H]9O[C@H]8C[C@H]8O[C@@H](CC[C@@H]1O2)C[C@@H](C)C8=C)O[C@@H]7[C@@H]6O3)[C@H]5O4	9.13	2.8	9.22	0.025	8.77
CC(=O)O[C@H]1C(=O)[C@@]2(C)[C@H]([C@H](OC(=O)c3ccccc3)[C@]3(O)C[C@H](OC(=O)[C@H](O)[C@@H](NC(=O)c4ccccc4)c4ccccc4)C(C)=C1C3(C)C)[C@]1(OC(C)=O)CO[C@@H]1C[C@@H]2O [PACLITAXEL]	7.57	11	7.80	0.23	6.77
